Source: patent publication US20230165873A1, “Methods of Use for Single Molecule Compounds Providing Multi-Target Inhibition to Treat Covid 19” (priority 2020, published 2023)
pIC50: −log10 of the molar value. Like-named read-outs stand apart in the source and are kept apart here.

How the values were obtained:
BRD4-2 = target: T1, BRD4-2 (Homo sapiens, UniProt O60885); experiment: BRD4-2 in vitro inhibition; assay type: binding
T1 construct: BRD4-2
Method: (§1) The kinase or bromodomain inhibitory activity of a compound of the invention can be determined by routine methods known to the skilled artisan without undue experimentation, or by procuring relevant analysis by a commercial vendor offering such services. […] In vivo, PI3K inhibition can be determined from target tissue biopsies by standard tissue processing in which cells are disrupted and Western Blot analysis is performed to determine the presence or absence of pAKT (substrate of PI3K) relative to a control sample. PI3K inhibition assays and BTK inhibition assays are known in the art and can be procured commercially through vendors such as Reaction Biology (Malvern, PA). The activity of a compound of the invention as an inhibitor of a bromodomain-containing protein, such as a BET protein, including BRD2, BRD3, BRD4, and/or BRDT, or an isoform or mutant thereof, may be determined in vitro, in vivo, or in a cell line. In vitro assays include assays that determine inhibition of bromodomain-containing proteins. Alternatively, inhibitor binding may be determined by running a competition experiment where a provided compound is incubated with a bromodomain-containing protein, such as a BET protein bound to known ligands, labeled or unlabeled. In vitro bromodomain inhibition assays can be performed using Alpha Screen Technology (Perkin Elmer Life and Analytical Sciences, Shelton, CT). In vivo bromodomain inhibition can be determined indirectly by evaluating the amount of a protein whose gene transcription is influenced or controlled by the bromodomain protein, for example, MYCN protein transcription is controlled by BRD4 (J.E. Delmore et al., Cell 2011, 146, 904-917; A. Puissant, Cancer Discov. 2013, 3, 308-323).

BRD4-1 = target: T2, BRD4-1 (Homo sapiens, UniProt O60885); experiment: BRD4-1 in vitro inhibition; assay type: binding
T2 construct: BRD4-1
Method: as §1

PI3K gamma = PI3K gamma (Homo sapiens, UniProt P48736); experiment: PI3K gamma in vitro inhibition; assay type: biochemical
Method: as §1
(§2) IC50 inhibition data against the indicated targets were determined for compounds of the invention using standard in vitro assays (Tables 8 and 9).

PI3K delta = PI3K delta (Homo sapiens, UniProt O00329); experiment: PI3K delta in vitro inhibition; assay type: biochemical
Method: as §1, §2

PI3K alpha = PI3K alpha (Homo sapiens, UniProt P42336); experiment: PI3K alpha in vitro inhibition; assay type: biochemical
Method: as §1

CDK6 cyclinD1 = CDK6 cyclinD1 (Homo sapiens, UniProt Q00534); experiment: CDK6 cyclinD1 in vitro inhibition; assay type: biochemical
Method: as §1, §2

CDK4 cyclinD1 = CDK4 cyclinD1 (Homo sapiens, UniProt P11802); experiment: CDK4 cyclinD1 in vitro inhibition; assay type: biochemical
Method: as §1, §2

BTK C481S = BTK C481S (Homo sapiens, UniProt Q06187, C481S); experiment: BTK C481S in vitro inhibition; assay type: biochemical
Method: as §1, §2

PI3K beta = PI3K beta (Homo sapiens, UniProt P42338); experiment: PI3K beta in vitro inhibition; assay type: biochemical
Method: as §1

BTK = BTK (Homo sapiens, UniProt Q06187); experiment: BTK in vitro inhibition; assay type: biochemical
Method: as §1, §2

Syk = Syk (Homo sapiens, UniProt P43405); experiment: Syk in vitro inhibition; assay type: biochemical
Method: as §1, §2

[1] = read-out: IC50 inhibition PI3K gamma

PI3K alpha, sequence (P42336 whole entry): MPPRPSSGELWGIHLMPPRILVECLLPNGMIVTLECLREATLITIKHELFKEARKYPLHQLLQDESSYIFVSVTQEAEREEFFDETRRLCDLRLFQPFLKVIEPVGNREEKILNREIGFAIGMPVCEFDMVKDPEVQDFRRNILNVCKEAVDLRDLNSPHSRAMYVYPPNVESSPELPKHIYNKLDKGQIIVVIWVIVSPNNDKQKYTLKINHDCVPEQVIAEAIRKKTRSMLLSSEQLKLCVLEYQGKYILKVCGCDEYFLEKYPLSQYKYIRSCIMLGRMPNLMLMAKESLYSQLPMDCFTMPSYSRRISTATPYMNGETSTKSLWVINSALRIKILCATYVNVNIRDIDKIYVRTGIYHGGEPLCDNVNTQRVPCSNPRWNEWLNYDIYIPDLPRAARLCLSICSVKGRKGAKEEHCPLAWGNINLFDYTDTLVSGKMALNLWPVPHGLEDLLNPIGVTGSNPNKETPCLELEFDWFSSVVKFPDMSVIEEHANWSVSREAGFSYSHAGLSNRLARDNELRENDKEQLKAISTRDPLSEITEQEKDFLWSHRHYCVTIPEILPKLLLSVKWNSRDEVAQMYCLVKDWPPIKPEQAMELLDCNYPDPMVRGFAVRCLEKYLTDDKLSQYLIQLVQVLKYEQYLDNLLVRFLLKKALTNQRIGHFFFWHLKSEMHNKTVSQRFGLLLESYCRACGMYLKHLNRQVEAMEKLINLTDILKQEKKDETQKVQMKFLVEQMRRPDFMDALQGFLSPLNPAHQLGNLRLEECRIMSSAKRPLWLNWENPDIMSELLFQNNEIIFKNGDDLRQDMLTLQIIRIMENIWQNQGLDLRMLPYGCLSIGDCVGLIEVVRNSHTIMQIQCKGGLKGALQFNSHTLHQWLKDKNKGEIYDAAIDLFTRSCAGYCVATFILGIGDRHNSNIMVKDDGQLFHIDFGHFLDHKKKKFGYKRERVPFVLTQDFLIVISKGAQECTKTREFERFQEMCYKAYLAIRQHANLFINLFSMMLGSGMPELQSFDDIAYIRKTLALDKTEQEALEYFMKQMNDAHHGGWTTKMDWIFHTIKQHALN
PI3K alpha, sequence (P27986 whole entry partner): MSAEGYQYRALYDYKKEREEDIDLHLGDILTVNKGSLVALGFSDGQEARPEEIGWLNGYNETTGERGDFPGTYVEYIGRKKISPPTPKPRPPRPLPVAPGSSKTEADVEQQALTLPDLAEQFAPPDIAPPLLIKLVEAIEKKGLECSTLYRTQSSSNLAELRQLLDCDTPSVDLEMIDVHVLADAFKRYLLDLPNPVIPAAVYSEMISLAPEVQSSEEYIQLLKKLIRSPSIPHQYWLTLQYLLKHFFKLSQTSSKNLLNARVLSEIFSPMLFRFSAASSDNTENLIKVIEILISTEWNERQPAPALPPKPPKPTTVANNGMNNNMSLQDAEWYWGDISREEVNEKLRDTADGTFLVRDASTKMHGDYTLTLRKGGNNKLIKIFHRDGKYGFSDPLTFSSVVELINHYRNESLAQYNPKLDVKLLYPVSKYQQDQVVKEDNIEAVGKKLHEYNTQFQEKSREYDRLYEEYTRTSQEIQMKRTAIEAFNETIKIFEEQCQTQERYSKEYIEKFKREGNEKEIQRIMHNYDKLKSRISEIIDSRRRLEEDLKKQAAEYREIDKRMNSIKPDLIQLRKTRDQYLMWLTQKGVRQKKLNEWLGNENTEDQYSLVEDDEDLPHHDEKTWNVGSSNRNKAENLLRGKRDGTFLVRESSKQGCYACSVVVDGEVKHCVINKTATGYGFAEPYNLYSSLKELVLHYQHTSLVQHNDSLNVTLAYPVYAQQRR
BTK, sequence (Q06187 whole entry): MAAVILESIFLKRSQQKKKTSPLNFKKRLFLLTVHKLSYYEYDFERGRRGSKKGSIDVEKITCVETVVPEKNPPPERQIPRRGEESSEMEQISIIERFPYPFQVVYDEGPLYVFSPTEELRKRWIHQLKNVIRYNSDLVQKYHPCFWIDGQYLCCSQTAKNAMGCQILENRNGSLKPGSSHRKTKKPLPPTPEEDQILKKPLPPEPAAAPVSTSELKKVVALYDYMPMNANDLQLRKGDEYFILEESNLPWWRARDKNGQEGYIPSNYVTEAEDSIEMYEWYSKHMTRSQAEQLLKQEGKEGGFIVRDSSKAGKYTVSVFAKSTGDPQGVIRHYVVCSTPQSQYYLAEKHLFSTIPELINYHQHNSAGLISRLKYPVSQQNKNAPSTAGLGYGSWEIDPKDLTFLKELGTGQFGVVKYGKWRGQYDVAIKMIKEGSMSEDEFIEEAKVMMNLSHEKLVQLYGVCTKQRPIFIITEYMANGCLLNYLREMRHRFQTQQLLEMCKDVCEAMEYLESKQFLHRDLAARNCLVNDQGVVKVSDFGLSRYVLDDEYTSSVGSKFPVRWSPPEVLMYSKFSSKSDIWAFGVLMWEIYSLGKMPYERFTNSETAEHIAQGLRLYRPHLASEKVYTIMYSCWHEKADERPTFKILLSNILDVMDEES
CDK6 cyclinD1, sequence (Q00534 whole entry): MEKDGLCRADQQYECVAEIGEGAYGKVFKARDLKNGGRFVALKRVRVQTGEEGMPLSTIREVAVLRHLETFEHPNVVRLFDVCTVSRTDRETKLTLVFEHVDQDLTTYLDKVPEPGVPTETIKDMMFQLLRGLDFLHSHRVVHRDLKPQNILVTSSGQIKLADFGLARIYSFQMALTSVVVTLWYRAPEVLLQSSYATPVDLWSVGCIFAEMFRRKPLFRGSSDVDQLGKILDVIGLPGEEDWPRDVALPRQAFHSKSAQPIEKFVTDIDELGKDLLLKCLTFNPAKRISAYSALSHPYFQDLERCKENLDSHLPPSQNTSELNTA
CDK6 cyclinD1, sequence (P24385 whole entry partner): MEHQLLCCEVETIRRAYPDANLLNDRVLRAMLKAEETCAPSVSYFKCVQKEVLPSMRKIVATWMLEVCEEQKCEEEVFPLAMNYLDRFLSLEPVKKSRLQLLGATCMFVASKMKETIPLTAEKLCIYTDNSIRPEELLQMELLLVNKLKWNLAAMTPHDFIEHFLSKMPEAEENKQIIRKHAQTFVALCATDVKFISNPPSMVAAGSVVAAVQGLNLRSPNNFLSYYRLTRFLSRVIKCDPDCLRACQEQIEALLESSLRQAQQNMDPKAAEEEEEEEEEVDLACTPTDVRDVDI
BTK C481S, sequence (Q06187 whole entry C481S): as the sequence (Q06187 whole entry) above, with C481S counted along it
PI3K beta, sequence (P42338 whole entry): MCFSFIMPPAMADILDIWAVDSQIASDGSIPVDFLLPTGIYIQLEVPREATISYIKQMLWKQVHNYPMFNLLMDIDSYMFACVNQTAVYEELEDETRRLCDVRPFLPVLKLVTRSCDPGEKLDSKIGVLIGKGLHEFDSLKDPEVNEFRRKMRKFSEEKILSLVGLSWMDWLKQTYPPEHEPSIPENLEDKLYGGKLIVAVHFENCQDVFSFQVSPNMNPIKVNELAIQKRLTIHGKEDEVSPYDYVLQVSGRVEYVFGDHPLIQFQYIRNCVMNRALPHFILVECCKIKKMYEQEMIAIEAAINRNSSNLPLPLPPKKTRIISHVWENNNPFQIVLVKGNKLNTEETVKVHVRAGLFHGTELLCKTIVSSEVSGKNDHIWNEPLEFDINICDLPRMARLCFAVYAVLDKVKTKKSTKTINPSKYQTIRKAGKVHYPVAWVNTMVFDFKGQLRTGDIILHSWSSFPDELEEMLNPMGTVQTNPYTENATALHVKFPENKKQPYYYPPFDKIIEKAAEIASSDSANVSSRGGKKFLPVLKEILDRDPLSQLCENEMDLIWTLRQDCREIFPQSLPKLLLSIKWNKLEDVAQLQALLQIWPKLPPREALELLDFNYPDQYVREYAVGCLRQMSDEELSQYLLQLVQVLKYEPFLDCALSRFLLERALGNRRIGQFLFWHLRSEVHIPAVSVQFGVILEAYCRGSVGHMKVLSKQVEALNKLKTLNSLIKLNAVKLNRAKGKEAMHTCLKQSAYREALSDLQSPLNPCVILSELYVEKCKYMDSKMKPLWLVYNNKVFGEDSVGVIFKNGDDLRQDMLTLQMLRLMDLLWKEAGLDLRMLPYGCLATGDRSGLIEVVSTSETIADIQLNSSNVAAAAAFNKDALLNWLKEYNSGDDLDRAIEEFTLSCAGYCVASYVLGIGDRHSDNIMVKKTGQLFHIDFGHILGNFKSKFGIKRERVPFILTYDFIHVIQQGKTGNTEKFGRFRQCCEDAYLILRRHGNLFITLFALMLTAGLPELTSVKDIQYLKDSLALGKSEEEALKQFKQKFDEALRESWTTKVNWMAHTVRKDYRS
PI3K beta, sequence (P27986 whole entry partner): as the sequence (P27986 whole entry partner) above
CDK4 cyclinD1, sequence (P11802 whole entry): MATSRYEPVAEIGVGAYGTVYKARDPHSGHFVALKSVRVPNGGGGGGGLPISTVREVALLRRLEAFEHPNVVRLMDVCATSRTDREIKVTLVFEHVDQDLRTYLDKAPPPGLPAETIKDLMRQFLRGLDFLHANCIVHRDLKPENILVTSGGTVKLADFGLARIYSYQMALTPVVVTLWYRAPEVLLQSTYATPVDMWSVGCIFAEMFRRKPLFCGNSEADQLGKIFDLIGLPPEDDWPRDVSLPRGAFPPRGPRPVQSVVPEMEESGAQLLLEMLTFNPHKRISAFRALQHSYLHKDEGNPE
CDK4 cyclinD1, sequence (P24385 whole entry partner): as the sequence (P24385 whole entry partner) above

Row | Structure (SMILES) | pIC50 (BRD4-2) | pIC50 (BRD4-1) | pIC50 (PI3K gamma; [1]) | pIC50 (PI3K delta) | pIC50 (PI3K alpha) | pIC50 (PI3K gamma; IC50 inhibition PI3K gamma) | pIC50 (CDK6 cyclinD1) | pIC50 (CDK4 cyclinD1) | pIC50 (BTK C481S) | pIC50 (PI3K beta) | pIC50 (BTK) | pIC50 (Syk)
1 | O=c1cc(N2CCOCC2)oc2c(C#Cc3ccsc3)csc12 [Compound 5-1] | 4.35 to 5.00 | 4.35 to 5.00 | > 6.30 | > 6.30 | > 6.30 | – | – | – | – | – | – | –
2 | COc1ccc(C#Cc2csc3c(=O)cc(N4CCOCC4)oc23)cc1 [Compound 5-2] | 5.00 to 6.00 | 6.00 to 6.30 | – | > 6.30 | > 6.30 | 6.00 to 6.30 | – | – | – | – | – | –
3 | COc1cc(C#Cc2csc3c(=O)cc(N4CCOCC4)oc23)cc(OC)c1 [Compound 5-3] | 6.00 to 6.30 | > 6.30 | 5.00 to 6.00 | > 6.30 | 6.00 to 6.30 | – | – | – | – | – | – | –
4 | O=c1cc(N2CCOCC2)oc2c(C#Cc3ccccc3)csc12 [Compound 5-4] | 4.35 to 5.00 | 5.00 to 6.00 | > 6.30 | > 6.30 | > 6.30 | – | – | – | – | – | – | –
5 | Cc1nc2c(F)cc(-c3nc(Nc4ccc(-c5csc6c(=O)cc(N7CCOCC7)oc56)cc4)ncc3F)cc2n1C(C)C [Compound 25-1] | < 4.35 | < 4.35 | < 4.35 | 5.00 to 6.00 | 4.35 to 5.00 | – | > 6.30 | > 6.30 | – | – | – | –
6 | CC(=O)c1c(C)c2cnc(Nc3ccc(-c4csc5c(=O)cc(N6CCOCC6)oc45)cc3)nc2n(C2CCCC2)c1=O [Compound 25-2] | > 6.30 | > 6.30 | 5.00 to 6.00 | > 6.30 | > 6.30 | – | > 6.30 | > 6.30 | – | – | – | –
7 | CC(C)(C)OC(=O)Nc1cc2cnc(Nc3ccc(-c4csc5c(=O)cc(N6CCOCC6)oc45)cc3)nc2n1C1CCCC1 [Compound 25-3] | 6.00 to 6.30 | > 6.30 | 5.00 to 6.00 | > 6.30 | > 6.30 | – | > 6.30 | > 6.30 | – | – | – | –
8 | C=CC(=O)Nc1ccc(-c2csc3c(=O)cc(N4CCOCC4)oc23)cc1 [Compound 30] | > 6.30 | 5.00 to 6.00 | 6.00 to 6.30 | – | > 6.30 | – | – | – | < 4.35 | > 6.30 | 4.35 to 5.00 | –
9 | C=CC(=O)Nc1cccc(-c2csc3c(=O)cc(N4CCOCC4)oc23)c1 [Compound 31] | 5.00 to 6.00 | 6.00 to 6.30 | 5.00 to 6.00 | – | > 6.30 | – | – | – | < 4.35 | > 6.30 | 6.00 to 6.30 | –
10 | C=CC(=O)N1CCOc2ccc(-c3csc4c(=O)cc(N5CCOCC5)oc34)cc21 [Compound 32] | > 6.30 | > 6.30 | > 6.30 | – | > 6.30 | – | – | – | 4.35 to 5.00 | > 6.30 | > 6.30 | –
11 | COc1cc(NC(C)=O)cc(-c2csc3c(=O)cc(N4CCOCC4)oc23)c1 [Compound 33] | 5.00 to 6.00 | > 6.30 | > 6.30 | – | > 6.30 | – | – | – | < 4.35 | > 6.30 | 6.00 to 6.30 | –
12 | C=CC(=O)Nc1cc(-c2csc3c(=O)cc(N4CCOCC4)oc23)ccc1OC [Compound 36] | 6.00 to 6.30 | > 6.30 | 5.00 to 6.00 | – | > 6.30 | – | – | – | 5.00 to 6.00 | > 6.30 | 5.00 to 6.00 | –
13 | C/C=C(/C)C(=O)N1CCOc2ccc(-c3csc4c(=O)cc(N5CCOCC5)oc34)cc21 [Compound 37] | 6.00 to 6.30 | 6.00 to 6.30 | 6.00 to 6.30 | – | > 6.30 | – | – | – | < 4.35 | > 6.30 | 4.35 to 5.00 | –
14 | C/C=C(\C)C(=O)N1CCOc2ccc(-c3csc4c(=O)cc(N5CCOCC5)oc34)cc21 [Compound 38] | 6.00 to 6.30 | > 6.30 | 5.00 to 6.00 | – | > 6.30 | – | – | – | < 4.35 | > 6.30 | < 4.35 | –
15 | C/C=C/C(=O)N1CCOc2ccc(-c3csc4c(=O)cc(N5CCOCC5)oc34)cc21 [Compound 39] | > 6.30 | > 6.30 | 5.00 to 6.00 | – | > 6.30 | – | – | – | < 4.35 | > 6.30 | 4.35 to 5.00 | –
16 | O=C(C1=CCCC1)N1CCOc2ccc(-c3csc4c(=O)cc(N5CCOCC5)oc34)cc21 [Compound 40] | > 6.30 | > 6.30 | 5.00 to 6.00 | – | > 6.30 | – | – | – | 4.35 to 5.00 | > 6.30 | < 4.35 | –
17 | C=CS(=O)(=O)N1CCCc2ccc(-c3csc4c(=O)cc(N5CCOCC5)oc34)cc21 [Compound 44] | > 6.30 | > 6.30 | > 6.30 | – | > 6.30 | – | – | – | 4.35 to 5.00 | > 6.30 | > 6.30 | –
18 | C=CS(=O)(=O)Nc1cc(-c2csc3c(=O)cc(N4CCOCC4)oc23)ccc1OC [Compound 45] | > 6.30 | > 6.30 | > 6.30 | – | > 6.30 | – | – | – | < 4.35 | > 6.30 | > 6.30 | –
19 | C=CS(=O)(=O)Nc1cccc(-c2csc3c(=O)cc(N4CCOCC4)oc23)c1 [Compound 46] | > 6.30 | > 6.30 | > 6.30 | – | > 6.30 | – | – | – | < 4.35 | > 6.30 | > 6.30 | –
20 | C=CS(=O)(=O)N(C)c1cccc(-c2csc3c(=O)cc(N4CCOCC4)oc23)c1 [Compound 47] | 6.00 to 6.30 | > 6.30 | > 6.30 | – | > 6.30 | – | – | – | < 4.35 | > 6.30 | > 6.30 | –
21 | C=CS(=O)(=O)N(C)c1cc(-c2csc3c(=O)cc(N4CCOCC4)oc23)ccc1OC [Compound 48] | > 6.30 | > 6.30 | > 6.30 | – | > 6.30 | – | – | – | < 4.35 | > 6.30 | > 6.30 | –
22 | C=CS(=O)(=O)N(c1cc(-c2csc3c(=O)cc(N4CCOCC4)oc23)ccc1OC)S(=O)(=O)C=C [Compound 49] | 5.00 to 6.00 | > 6.30 | > 6.30 | – | > 6.30 | – | – | – | 4.35 to 5.00 | > 6.30 | > 6.30 | –
23 | C=CS(=O)(=O)N(c1cccc(-c2csc3c(=O)cc(N4CCOCC4)oc23)c1)S(=O)(=O)C=C [Compound 50] | > 6.30 | > 6.30 | > 6.30 | – | > 6.30 | – | – | – | 4.35 to 5.00 | > 6.30 | > 6.30 | –
24 | C=CS(=O)(=O)N(CCS(=O)(=O)N(c1cc(-c2csc3c(=O)cc(N4CCOCC4)oc23)ccc1OC)S(=O)(=O)C=C)c1cc(-c2csc3c(=O)cc(N4CCOCC4)oc23)ccc1OC [Compound 51] | > 6.30 | 5.00 to 6.00 | 6.00 to 6.30 | – | > 6.30 | – | – | – | 4.35 to 5.00 | > 6.30 | 5.00 to 6.00 | –
25 | Cc1nn(-c2ccnc(Nc3ccc(-c4csc5c(=O)cc(N6CCOCC6)oc45)cc3)n2)cc1CN1CC(O)C1 [Compound 52] | < 4.35 | < 4.35 | 4.35 to 5.00 | 5.00 to 6.00 | 6.00 to 6.30 | – | > 6.30 | 4.35 to 5.00 | – | – | – | > 6.30
26 | Cc1nn(-c2ccnc(Nc3ccc(-c4csc5c(=O)cc(N6CCNCC6)oc45)cc3)n2)cc1CN1CC(O)C1 [Compound 53] | < 4.35 | 4.35 to 5.00 | < 4.35 | 5.00 to 6.00 | 5.00 to 6.00 | – | > 6.30 | 5.00 to 6.00 | – | – | – | > 6.30
